These results are taken from patent publication US20260355196A1, “INHIBITORS AND DEGRADERS OF PIP4K PROTEIN” (Larkspur Biosciences, Inc., priority 2023, published 2026).

The first assay deals with T1, PIP4K2C (Homo sapiens, UniProt Q8TBX8).
T1 sequence (Q8TBX8 1-421): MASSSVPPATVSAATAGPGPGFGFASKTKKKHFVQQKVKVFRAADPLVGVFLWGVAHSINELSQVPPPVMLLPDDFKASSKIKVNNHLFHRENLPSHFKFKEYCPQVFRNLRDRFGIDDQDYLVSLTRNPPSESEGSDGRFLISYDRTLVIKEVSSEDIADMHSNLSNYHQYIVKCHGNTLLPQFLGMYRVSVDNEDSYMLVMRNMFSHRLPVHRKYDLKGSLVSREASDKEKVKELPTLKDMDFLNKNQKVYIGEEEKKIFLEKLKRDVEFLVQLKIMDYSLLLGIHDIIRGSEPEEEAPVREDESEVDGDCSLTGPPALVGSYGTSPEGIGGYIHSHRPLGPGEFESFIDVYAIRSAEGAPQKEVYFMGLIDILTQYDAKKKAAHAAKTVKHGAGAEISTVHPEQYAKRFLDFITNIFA
Kind of assay: HiBiT PIP4K2C degradation assay in MOLT-4 cells (endogenous PIP4K2C C-terminally tagged with HiBiT). In kind it is cell-based. The arrangement: untagged in primary human PBMCs and monocyte-derived dendritic cells. Particulars: 6 hours of incubation time, rather than 24 hours; MOLT-4, top concentration 10 micromolar; read-out: HiBIT-degradation MOLT4 PIP4k2C DC50 (6 hours, marked *). The procedure, abridged: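 DC50 derived by Hill fit of luminescence from Nano-Glo HiBiT lytic detection. Cells were HiBiT knock-in MOLT-4 (C-terminal tag on endogenous PIP4K2C), exposed 6 h or 24 h at 37 C to compound, top concentration 10 micromolar, 3-fold steps, 10 points, duplicates.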
In general terms: The HiBiT peptide binds its large partner to form an active luciferase.
On to `O=C1CCC(Nc2ccc(N3CCN([C@H]4CC[C@H](NC(=O)[C@H]5CC[C@H](Nc6ncc(F)c(-c7cccc(-n8ccccc8=O)c7)n6)CC5)CC4)CC3)c(F)c2)C(=O)N1` (stereo partly drawn) [Compound 381, trans-(1r,4R)—N-((1r,4R)-4-(4-(4-((2,6-dioxopiperidin-3-yl)amino)-2-fluorophenyl)piperazin-1-yl)cyclohexyl)-4-((5-fluoro-4-(3-(2-oxopyridin-1(2H)-yl)phenyl)pyrimidin-2-yl)amino)cyclohexane-1-carboxamide], for which the DC50 was below 500 nM.

As to `O=C1CCC(Nc2ccc(N3CCN([C@H]4CC[C@H](NC(=O)[C@H]5CC[C@H](Nc6ncc(F)c(-c7cccc(-c8ccc[nH]c8=O)c7)n6)CC5)CC4)CC3)c(F)c2)C(=O)N1` (stereo partly drawn) [Compound 382, trans-N-(trans-4-(4-(4-((2,6-dioxopiperidin-3-yl)amino)-2-fluorophenyl)piperazin-1-yl)cyclohexyl)-4-((5-fluoro-4-(3-(2-oxo-1,2-dihydropyridin-3-yl)phenyl)pyrimidin-2-yl)amino)cyclohexane-1-carboxamide], the DC50 is below 500 nM.

In the case of `Cn1nc(C2CCC(=O)NC2=O)c2ccc(N3CCN([C@H]4CC[C@H](NC(=O)[C@H]5CC[C@H](Nc6ncc(F)c(-c7cccc(-n8ccccc8=O)c7)n6)CC5)CC4)CC3)cc21` (stereo partly drawn) [Compound 383, trans-N-(trans-4-(4-(3-(2,6-dioxopiperidin-3-yl)-1-methyl-1H-indazol-6-yl)piperazin-1-yl)cyclohexyl)-4-((5-fluoro-4-(3-(2-oxopyridin-1(2H)-yl)phenyl)pyrimidin-2-yl)amino)cyclohexane-1-carboxamide], the DC50 is below 500 nM.

As to `O=C1CCC(Nc2ccc(C3CCN(CC4CCN(C(=O)[C@H]5CC[C@H](Nc6ncc(F)c(-c7cccc(-c8ccc[nH]c8=O)c7)n6)CC5)CC4)CC3)c(F)c2)C(=O)N1` (stereo partly drawn) [Compound 384, trans-3-((3-fluoro-4-(1-((1-(4-((5-fluoro-4-(3-(2-oxo-1,2-dihydropyridin-3-yl)phenyl)pyrimidin-2-yl)amino)cyclohexane-1-carbonyl)piperidin-4-yl)methyl)piperidin-4-yl)phenyl)amino)piperidine-2,6-dione], the DC50 is below 500 nM.

Regarding `Cn1nc(C2CCC(=O)NC2=O)c2ccc(C3CCN(CC4CCN(C(=O)[C@H]5CC[C@H](Nc6ncc(F)c(-c7cccc(-n8ccccc8=O)c7)n6)CC5)CC4)CC3)cc21` (stereo partly drawn) [Compound 385, trans-3-(6-(1-((1-(4-((5-fluoro-4-(3-(2-oxopyridin-1(2H)-yl)phenyl)pyrimidin-2-yl)amino)cyclohexane-1-carbonyl)piperidin-4-yl)methyl)piperidin-4-yl)-1-methyl-1H-indazol-3-yl)piperidine-2,6-dione], the DC50 is below 500 nM.

With `O=C1CCC(Nc2ccc(N3CCC(CN4CCN(C(=O)[C@H]5CC[C@H](Nc6ncc(F)c(-c7cccc(-n8ccccc8=O)c7)n6)CC5)CC4)CC3)c(F)c2)C(=O)N1` (stereo partly drawn) [Compound 387, trans-3-((3-fluoro-4-(4-((4-(4-((5-fluoro-4-(3-(2-oxopyridin-1(2H)-yl)phenyl)pyrimidin-2-yl)amino)cyclohexane-1-carbonyl)piperazin-1-yl)methyl)piperidin-1-yl)phenyl)amino)piperidine-2,6-dione], the DC50 is below 500 nM.

The same assay, now with this note: 24 hours incubation, MOLT-4, top concentration 10 micromolar; read-out: HiBIT-degradation MOLT4 PIP4k2C 24 hours DC50.
With `O=C1CCC(n2c(=O)oc3cc(C4CCN(CC5CCN(CC(=O)N[C@H]6CC[C@H](Nc7ncc(Cl)c(-c8cccc(-n9ccccc9=O)c8)n7)CC6)CC5)CC4)ccc32)C(=O)N1` (stereo partly drawn) [Compound 369, trans-N-(4-((5-chloro-4-(3-(2-oxopyridin-1(2H)-yl)phenyl)pyrimidin-2-yl)amino)cyclohexyl)-2-(4-((4-(3-(2,6-dioxopiperidin-3-yl)-2-oxo-2,3-dihydrobenzo[d]oxazol-6-yl)piperidin-1-yl)methyl)piperidin-1-yl)acetamide], the DC50 was below 500 nM.

With `CC(C(=O)N1CCC(Nc2ncc(F)c(-c3cccc(-n4ccccc4=O)c3)n2)CC1)N1CCC(CN2CCC(c3ccc4c(c3)oc(=O)n4C3CCC(=O)NC3=O)CC2)CC1` (centres unmarked) [Compound 370, 3-(6-(1-((1-(1-(4-((5-fluoro-4-(3-(2-oxopyridin-1(2H)-yl)phenyl)pyrimidin-2-yl)amino)piperidin-1-yl)-1-oxopropan-2-yl)piperidin-4-yl)methyl)piperidin-4-yl)-2-oxobenzo[d]oxazol-3 (2H)-yl)piperidine-2,6-dione], the DC50 was below 500 nM.

As for `O=C1CCC(n2c(=O)oc3cc(C4CCN(CC5CCN(CC(=O)N6CCC(Nc7ncc(F)c(-c8cccc(N9CCCOC9=O)c8)n7)CC6)CC5)CC4)ccc32)C(=O)N1` (centres unmarked) [Compound 371, 3-(6-(1-((1-(2-(4-((5-fluoro-4-(3-(2-oxo-1,3-oxazinan-3-yl)phenyl)pyrimidin-2-yl)amino)piperidin-1-yl)-2-oxoethyl)piperidin-4-yl)methyl)piperidin-4-yl)-2-oxobenzo[d]oxazol-3 (2H)-yl)piperidine-2,6-dione], the DC50 is below 500 nM.

With `O=C1CCC(n2c(=O)oc3cc(C4CCN(CC5CCN(CC(=O)N6CCC(Nc7ncc(F)c(-c8cccc(N9CCOC9=O)c8)n7)CC6)CC5)CC4)ccc32)C(=O)N1` (centres unmarked) [Compound 372, 3-(6-(1-((1-(2-(4-((5-fluoro-4-(3-(2-oxooxazolidin-3-yl)phenyl)pyrimidin-2-yl)amino)piperidin-1-yl)-2-oxoethyl)piperidin-4-yl)methyl)piperidin-4-yl)-2-oxobenzo[d]oxazol-3 (2H)-yl)piperidine-2,6-dione], the DC50 was below 500 nM.

On to `O=C1CCC(n2c(=O)oc3cc(C4CCN(CC5CCN(CC(=O)N6CCC(Nc7ncc(Cl)c(-c8cccc(-n9ccccc9=O)c8)n7)CC6)CC5)CC4)ccc32)C(=O)N1` (centres unmarked) [Compound 373, 3-(6-(1-((1-(2-(4-((5-chloro-4-(3-(2-oxopyridin-1(2H)-yl)phenyl)pyrimidin-2-yl)amino)piperidin-1-yl)-2-oxoethyl)piperidin-4-yl)methyl)piperidin-4-yl)-2-oxobenzo[d]oxazol-3 (2H)-yl)piperidine-2,6-dione], for which the DC50 is above 5000 nM.

As to `O=C1CCC(Nc2ccc(N3CCN(CC4CCN(C(=O)[C@H]5CC[C@H](Nc6ncc(F)c(-c7cccc(-n8ccccc8=O)c7)n6)CC5)CC4)CC3)c(F)c2)C(=O)N1` (stereo partly drawn) [Compound 374, trans-3-((3-fluoro-4-(4-((1-(4-((5-fluoro-4-(3-(2-oxopyridin-1(2H)-yl)phenyl)pyrimidin-2-yl)amino)cyclohexane-1-carbonyl)piperidin-4-yl)methyl)piperazin-1-yl)phenyl)amino)piperidine-2,6-dione], the DC50 was below 500 nM.

`O=C1CCC(Nc2ccc(N3CCN(CC4CCN(C(=O)[C@H]5CC[C@H](Nc6ncc(F)c(-c7cccc(-c8ccc[nH]c8=O)c7)n6)CC5)CC4)CC3)c(F)c2)C(=O)N1` (stereo partly drawn) [Compound 376, trans-3-((3-fluoro-4-(4-((1-(4-((5-fluoro-4-(3-(2-oxo-1,2-dihydropyridin-3-yl)phenyl)pyrimidin-2-yl)amino)cyclohexane-1-carbonyl)piperidin-4-yl)methyl)piperazin-1-yl)phenyl)amino)piperidine-2,6-dione]: the DC50 is below 500 nM.

As for `O=C1CCC(Nc2ccc(N3CCC(N4CC5(CC(OC(=O)N[C@H]6CC[C@H](Nc7ncc(F)c(-c8cccc(-n9ccccc9=O)c8)n7)CC6)C5)C4)CC3)c(F)c2)C(=O)N1` (stereo partly drawn) [Compound 377, trans-2-(1-(4-((2,6-dioxopiperidin-3-yl)amino)-2-fluorophenyl)piperidin-4-yl)-2-azaspiro[3.3]heptan-6-yl (4-((5-fluoro-4-(3-(2-oxopyridin-1(2H)-yl)phenyl)pyrimidin-2-yl)amino)cyclohexyl)carbamate], the DC50 was below 500 nM.

Take `O=C1CCC(n2c(=O)oc3cc(N4CCC(CN5CCN(CC(=O)N6CCC(Nc7ncc(F)c(-c8cccc(-n9ccccc9=O)c8)n7)CC6)CC5)CC4)ccc32)C(=O)N1` (centres unmarked) [Compound 378, 3-(6-(4-((4-(2-(4-((5-fluoro-4-(3-(2-oxopyridin-1(2H)-yl)phenyl)pyrimidin-2-yl)amino)piperidin-1-yl)-2-oxoethyl)piperazin-1-yl)methyl)piperidin-1-yl)-2-oxobenzo[d]oxazol-3 (2H)-yl)piperidine-2,6-dione]: the DC50 was below 500 nM.

Turning to `O=C1CCC(n2c(=O)oc3cc(C4CCN(CC5CCN(CC(=O)N6CCC(Nc7ncc(F)c(-c8cccc(-c9ccc[nH]c9=O)c8)n7)CC6)CC5)CC4)ccc32)C(=O)N1` (centres unmarked) [Compound 379, 3-[6-[1-[[1-[2-[4-[[5-fluoro-4-[3-(2-oxo-1H-pyridin-3-yl)phenyl]pyrimidin-2-yl]amino]-1-piperidyl]-2-oxo-ethyl]-4-piperidyl]methyl]-4-piperidyl]-2-oxo-1,3-benzoxazol-3-yl]piperidine-2,6-dione], the DC50 is below 500 nM.

`O=C1CCC(n2c(=O)oc3cc(N4CCC(CN5CCC(O)(CC(=O)N6CCC(Nc7ncc(F)c(-c8cccc(-n9ccccc9=O)c8)n7)CC6)CC5)CC4)ccc32)C(=O)N1` (centres unmarked) [Compound 380, 3-(6-(4-((4-(2-(4-((5-fluoro-4-(3-(2-oxopyridin-1(2H)-yl)phenyl)pyrimidin-2-yl)amino)piperidin-1-yl)-2-oxoethyl)-4-hydroxypiperidin-1-yl)methyl)piperidin-1-yl)-2-oxobenzo[d]oxazol-3 (2H)-yl)piperidine-2,6-dione]: the DC50 is below 500 nM.

What is called DC50 is the concentration giving 50% degradation.
